Data reported in ChEMBL document CHEMBL1131819, “Human chymase inhibitors based on the 1,2,5-thiadiazolidin-3-one 1,1 dioxide scaffold” (Bioorg Med Chem Lett, 1999).
Activity calls are given as the source filed them. The calls are words filed in the database; no cut-off is given here.

Experiments:
[1] = target: T1, Chymase (Homo sapiens) (UniProt P23946); assay: Second order rate constant for the inhibition of human skin chymase.
T1 sequence (whole entry): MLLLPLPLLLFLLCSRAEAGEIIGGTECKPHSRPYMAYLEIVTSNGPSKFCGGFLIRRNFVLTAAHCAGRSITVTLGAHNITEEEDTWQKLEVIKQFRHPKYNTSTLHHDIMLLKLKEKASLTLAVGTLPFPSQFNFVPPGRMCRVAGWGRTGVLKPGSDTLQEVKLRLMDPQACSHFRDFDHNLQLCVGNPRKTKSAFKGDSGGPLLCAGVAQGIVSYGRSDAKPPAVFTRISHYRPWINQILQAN

[2] = target: T2, Cathepsin G (Homo sapiens) (UniProt P08311); assay: Second order rate constant for the inhibition of leukocyte Cathepsin G (Cat G).
T2 sequence (whole entry): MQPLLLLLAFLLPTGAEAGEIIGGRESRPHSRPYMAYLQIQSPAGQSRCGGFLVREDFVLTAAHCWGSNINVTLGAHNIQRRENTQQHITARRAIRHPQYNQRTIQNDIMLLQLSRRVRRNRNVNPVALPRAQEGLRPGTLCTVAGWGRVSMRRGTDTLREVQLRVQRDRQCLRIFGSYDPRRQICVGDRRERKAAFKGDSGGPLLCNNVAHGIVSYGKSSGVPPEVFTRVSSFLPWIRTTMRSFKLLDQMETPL

With `O=C(O)CC(=O)OCN1C(=O)C(Cc2ccccc2)N(Cc2ccccc2)S1(=O)=O` (configuration not stated) the K inact/Ki [1] was 45700 M⁻¹ s⁻¹ and the K inact/Ki [2] was 22700 M⁻¹ s⁻¹.
Work on `O=C(O)CS(=O)(=O)CN1C(=O)C(Cc2ccccc2)N(Cc2ccccc2)S1(=O)=O` (configuration not stated) yielded a K inact/Ki [1] of 10800 M⁻¹ s⁻¹ and a K inact/Ki [2] of 25200 M⁻¹ s⁻¹.
For `Nc1ccc2nc(SCN3C(=O)C(Cc4ccccc4)N(Cc4ccccc4)S3(=O)=O)sc2c1` (configuration not stated), the K inact/Ki [1] was 14700 M⁻¹ s⁻¹ and the K inact/Ki [2] was 15700 M⁻¹ s⁻¹.
With `O=C(O)c1cccc(S(=O)(=O)CN2C(=O)C(Cc3ccccc3)N(Cc3ccccc3)S2(=O)=O)c1` (configuration not stated) the K inact/Ki [1] was 13500 M⁻¹ s⁻¹ and the K inact/Ki [2] was 20700 M⁻¹ s⁻¹.
`O=C(O)c1ccc(S(=O)(=O)CN2C(=O)C(Cc3ccccc3)N(Cc3ccccc3)S2(=O)=O)cc1` (configuration not stated) was tested, and the K inact/Ki [1] was 186000 M⁻¹ s⁻¹ and the K inact/Ki [2] was 66700 M⁻¹ s⁻¹.
With `O=C(CO)OCN1C(=O)C(Cc2ccccc2)N(Cc2ccccc2)S1(=O)=O` (configuration not stated) the K inact/Ki [1] was 30500 M⁻¹ s⁻¹ and the K inact/Ki [2] was 12800 M⁻¹ s⁻¹.
Work on `CS(=O)(=O)CN1C(=O)C(Cc2ccccc2)N(Cc2ccccc2)S1(=O)=O` (configuration not stated) yielded a K inact/Ki [1] of 4600 M⁻¹ s⁻¹ and a K inact/Ki [2] of 8500 M⁻¹ s⁻¹.
In the case of `O=C(O)c1ccccc1S(=O)(=O)CN1C(=O)C(Cc2ccccc2)N(Cc2ccccc2)S1(=O)=O` (configuration not stated), the “K inact/Ki” value [1] is reported as “inactive” and the K inact/Ki [2] is reported as 350 M⁻¹ s⁻¹.
`O=C(O)CCS(=O)(=O)CN1C(=O)C(Cc2ccccc2)N(Cc2ccccc2)S1(=O)=O` (configuration not stated) gave a K inact/Ki [1] of 23400 M⁻¹ s⁻¹ and a K inact/Ki [2] of 17400 M⁻¹ s⁻¹.
`O=C1C(Cc2ccccc2)N(Cc2ccccc2)S(=O)(=O)N1CSc1nc2ccccc2o1` (configuration not stated) gave a K inact/Ki [1] of 5430 M⁻¹ s⁻¹ and a K inact/Ki [2] of 17100 M⁻¹ s⁻¹.
`O=C(OCN1C(=O)C(Cc2ccccc2)N(Cc2ccccc2)S1(=O)=O)C(O)c1ccccc1` (configuration not stated) gave a K inact/Ki [1] of 39900 M⁻¹ s⁻¹ and a K inact/Ki [2] of 12300 M⁻¹ s⁻¹.
In the case of `O=C1C(Cc2ccccc2)N(Cc2ccccc2)S(=O)(=O)N1CS(=O)(=O)c1ccccc1` (configuration not stated), the K inact/Ki [1] is reported as 12500 M⁻¹ s⁻¹ and the K inact/Ki [2] is reported as 11200 M⁻¹ s⁻¹.
Compound `O=C1C(Cc2ccccc2)N(Cc2ccccc2)S(=O)(=O)N1CSc1nnc(-c2ccccc2)o1` (configuration not stated) has a K inact/Ki [1] of 5090 M⁻¹ s⁻¹ and a K inact/Ki [2] of 490 M⁻¹ s⁻¹.
For `CC(O)C(=O)OCN1C(=O)C(Cc2ccccc2)N(Cc2ccccc2)S1(=O)=O` (configuration not stated), the K inact/Ki [1] was 38500 M⁻¹ s⁻¹ and the K inact/Ki [2] was 12700 M⁻¹ s⁻¹.
In the case of `CC(=O)OCN1C(=O)C(Cc2ccccc2)N(Cc2ccccc2)S1(=O)=O` (configuration not stated), the K inact/Ki [1] is reported as 21800 M⁻¹ s⁻¹ and the K inact/Ki [2] is reported as 10600 M⁻¹ s⁻¹.
Compound `CN1C(Cc2ccccc2)C(=O)N(CSc2nc3ccccc3o2)S1(=O)=O` (configuration not stated) has a K inact/Ki [1] of 6250 M⁻¹ s⁻¹ and a K inact/Ki [2] of 430 M⁻¹ s⁻¹.
